Results from PubChem BioAssay (NCI).
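All cell lines were grown in 96-well plates and treated with compound for 48 hours. Definition used: TGI = concentration required for complete inhibition of growth.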

What was measured:
Experiment in all cases: NCI-60 cell line screen, 48 h
[1] = test system: EKVX NSCLC
[2] = test system: MOLT-4 leukemia
[3] = test system: MDA-N
[4] = test system: CAKI-1 renal
[5] = test system: OVCAR-5 ovarian
[6] = test system: OVCAR-8 ovarian
[7] = test system: UACC-257 melanoma
[8] = test system: HOP-62 NSCLC
[9] = test system: HCT-116 colon
[10] = test system: SNB-19 CNS
[11] = test system: MDA-MB-231 breast
[12] = test system: HS 578T breast
[13] = test system: M14 melanoma
[14] = test system: TK-10 renal
[15] = test system: CCRF-CEM leukemia
[16] = test system: SNB-75 CNS
[17] = test system: T-47D breast
[18] = test system: MALME-3M melanoma
[19] = test system: K-562 leukemia

| SMILES | TGI [1] [µM] | TGI [2] [µM] | TGI [3] [µM] | TGI [4] [µM] | TGI [5] [µM] | TGI [6] [µM] | TGI [7] [µM] | TGI [8] [µM] | TGI [9] [µM] | TGI [10] [µM] | TGI [11] [µM] | TGI [12] [µM] | TGI [13] [µM] | TGI [14] [µM] | TGI [15] [µM] | TGI [16] [µM] | TGI [17] [µM] | TGI [18] [µM] | TGI [19] [µM] |
| --- | --- | --- | --- | --- | --- | --- | --- | --- | --- | --- | --- | --- | --- | --- | --- | --- | --- | --- | --- |
| COc1cc(N(CCC#N)CCC#N)ccc1/C=C1\SC(=S)NC1=O | > 100 | > 100 | > 100 | > 100 | > 100 | > 100 | > 100 | > 100 | > 100 | > 100 | > 100 | > 100 | > 100 | > 100 | > 100 | > 100 | > 100 | > 100 | > 100 |
| COC(=O)/C=C/c1ccc2c(c1)CCC2 | > 100 | > 100 | > 100 | > 100 | > 100 | > 100 | > 100 | > 100 | 98 | > 100 | > 100 | > 100 | > 100 | > 100 | > 100 | 91.4 | > 100 | > 100 | > 100 |
| Cc1ccccc1C1CC(=O)CC(c2ccccc2C)C12C(=O)NC(=O)NC2=O (stereo not drawn) | > 100 | > 100 | > 82.8 | > 100 | > 100 | > 100 | > 100 | > 100 | > 100 | > 100 | > 100 | > 100 | > 100 | > 100 | > 100 | > 100 | > 100 | > 100 | > 100 |
| O=C(Nc1cc(C(=O)Nc2cccc(S(=O)(=O)O)c2)cc(C(=O)Nc2cccc(S(=O)(=O)O)c2)c1)c1cccc(C(=O)Nc2cc(C(=O)Nc3cccc(S(=O)(=O)O)c3)cc(C(=O)Nc3cccc(S(=O)(=O)O)c3)c2)c1 | > 100 | > 100 | > 100 | > 100 | > 100 | > 100 | > 100 | > 100 | > 100 |  | > 100 | > 100 | > 100 | > 100 | > 100 | > 100 | > 100 | > 100 | 58.6 |
| CCCCON1C[C@@H](O)C(O)[C@@H](O)C1 (stereo partly drawn) | > 100 | > 100 | > 100 | > 100 | > 100 | > 100 | > 100 | > 100 | > 100 | > 100 | > 100 | > 100 | > 100 | > 100 | > 100 | > 100 | > 100 | > 100 | > 100 |
| Cc1ccc([N+](=O)[O-])c2c(NCCNC(=O)Cn3ccnc3[N+](=O)[O-])ccnc12 | > 100 | > 100 | > 100 | > 100 | > 100 | > 100 | 87.7 | 48.7 | > 100 | > 100 | > 100 | > 100 | > 100 | > 100 | > 100 | > 100 | > 100 | 89.1 | > 100 |
| CC1(c2ccc(F)cc2)CC(c2ccc(F)cc2)=C(C#N)C(=C(C#N)C#N)N1 (stereo not drawn) | 31.5 | 34.8 | 34.3 | 30.2 | 38.5 | 54 | 28.9 | 38.6 | 30.5 | 35.1 | 43.9 | 64.1 | 35.6 | 32.2 | 64.5 | 34.2 | 31.7 | 37.2 | 38.1 |
| COC(OC)C1OC(CO)C(n2cc(C)c(=O)[nH]c2=O)C1O (stereo not drawn) | > 100 | > 100 | > 100 | > 100 | > 100 | > 100 | > 100 | > 100 | > 100 | > 100 | > 100 | > 100 | > 100 | > 100 | > 100 | > 100 | > 100 | > 100 | > 100 |
| O=[N+]([O-])C(Cl)C(Cl)C(Cl)=C(Cl)Cl (stereo not drawn) | > 100 | 47.8 | 40.6 | 33.2 | > 82.2 | > 75.2 | 41.9 | > 100 | 38.3 | > 100 | 34.6 | 67.5 | 19.5 | 39.4 | 58.6 | > 72.7 | 47.9 | 32.9 | 85.2 |
| CC(C)(C)OC(=O)N(O)[C@@H]1C=C[C@H](n2cnc3c(N)ncnc32)C1 | > 100 | > 100 | > 100 | > 100 | > 100 | > 100 | > 100 | > 100 | > 100 | > 100 | > 100 | > 100 | > 100 | > 100 | > 100 | > 100 | > 100 | > 100 | > 100 |
| CC(C)=CCC[C@@H](C)C1=C(O)C(Nc2ccccc2Br)=C(C)C(=O)C1=O | 48.3 | 25.5 | 27.5 | 52.1 | 41.9 | 73 | 43.6 | 36.8 | 43.6 | 73 | 61.9 | 49.3 | 29.8 | 68.2 | 12.7 | 66.2 | 66.4 | 26 | > 69.9 |
| CC(C)/C(Cl)=N\OC(=O)Nc1cccc(F)c1 | 31.8 | 6.29 | 29.5 | 32.5 | 35.1 | 31.1 | 30 | > 31.6 | 30.6 | > 100 | 31.4 | 63.2 | 10.8 | 28.1 | 5.07 | 55.6 | 61.6 | 14.4 | 4.8 |
| O=C(O)CN1CCNCCN(CP(=O)(O)O)CC1 | > 100 | > 100 | > 100 | > 100 | > 100 | > 22.9 | > 100 | > 100 | > 27.5 | > 100 | > 100 | > 100 | > 100 | > 100 | > 100 | > 100 | > 100 | > 100 | > 100 |
| N#Cc1c(-c2ccc(Cl)cc2)cc(-c2ccc(Nc3ccnc4cc(C(F)(F)F)ccc34)cc2)[nH]c1=O | > 100 | 20.7 | 11.9 | > 64.3 | > 65 | > 100 | > 100 | > 57.7 | > 44 | 34.3 | 65.8 | > 100 | 13.9 | 63.2 | 11 | > 50 | 14.8 | > 100 | 15.6 |
| O=C1/C(=C/c2cccnc2)C(n2cccc2)c2c(Br)sc(Br)c21 (stereo not drawn) | 4.1 | 5.34 | 4.24 | 7.51 | 31.9 | 4.81 | 3.36 | 7.36 | 4.97 | 9.65 | 3.3 | 9.66 | 4.85 | 4.28 | 10.1 | 3.67 | 6.25 | 10.7 | 7.39 |
| CCOc1ccc(N=NC2C(=O)N(C(=O)CC(=O)Nc3ccccc3OC)N=C2C)cc1 (stereo not drawn) | > 100 | > 100 | 6.14 | > 64.7 | > 100 | > 100 | > 100 | > 49.5 | > 100 | > 34.8 | > 51.7 | > 100 | > 100 | > 52.3 | > 100 | 23.6 | > 100 | > 100 | > 100 |
| Cc1ccc(/C(O)=C/c2nc3ccccc3oc2=O)cc1 | > 100 | > 100 | 59.3 | > 100 | > 100 | > 100 | > 100 | > 100 | > 100 | > 100 | > 100 | > 100 | > 100 | > 100 | > 100 | > 100 | > 100 | > 100 | > 100 |
| O=C1CCCCC/C1=C\c1ccc(F)cc1 | > 100 | > 100 | > 100 | > 100 | > 100 |  | > 100 | > 100 | > 100 | > 100 | > 100 | > 100 | > 100 | > 100 | 59.8 | > 100 | > 100 | > 100 | > 100 |
| COc1cc(N=CN(C)C)c2ncccc2c1 | > 100 | > 100 | 56 | > 100 | > 100 | > 100 | > 100 | > 100 | > 100 | > 100 | > 100 | > 100 | > 100 | > 100 | > 100 | > 100 | > 100 | > 100 | 47 |
| CCc1n[nH]c(=S)n1/N=C\c1ccc(-c2ccccc2Cl)o1 | > 100 | 45.6 | 54.1 | > 100 | > 100 | 61.7 | > 100 | > 100 | 66.6 | > 100 | > 100 | > 100 | > 100 | > 100 | > 100 | > 100 | 87.5 | > 100 | 53.2 |
| COc1cc2cc(C(=O)N3CC(CCl)c4c3cc([N+](=O)[O-])c3ccccc43)[nH]c2c(OC)c1OC (stereo not drawn) | > 100 | > 100 | > 100 | > 100 | > 100 | > 100 | > 100 | > 100 | > 100 | > 100 | > 100 | > 100 | > 100 | > 100 | > 100 | > 100 | > 100 | > 100 | > 100 |
| OC(c1nc2ccccc2s1)(C(F)(F)F)C(F)(F)F | > 100 | > 100 | > 100 | > 100 | > 100 | > 100 | > 100 | > 100 | > 100 | > 100 | > 100 | > 100 | > 100 | > 100 | > 100 | > 100 | > 100 | > 100 | > 100 |
| COc1ccc(N(C)S(=O)(=O)c2ccccc2)cc1 | > 100 | > 100 | > 100 | > 100 | > 100 | > 100 | > 100 | > 100 | > 100 | > 100 | > 100 | > 100 | > 100 | > 100 | > 100 | > 100 | > 100 | > 100 | > 100 |
| COc1ccc(NC(=O)CC(=O)N2N=C(N3CCCCC3)CC2c2ccccc2)cc1 (stereo not drawn) | > 100 | > 100 | > 100 | > 100 | > 100 | > 100 | > 100 | > 100 | > 100 | > 100 | > 100 | > 100 | > 100 | > 100 | > 100 | > 100 | > 100 | > 100 |  |
